The melting point is the temperature of the solid-liquid transition.

These results are taken from patent US7608627B2, “6-azaindole compound” (Takeda Pharmaceutical Company Limited, priority 2005, dated 2009).

Structures are written as SMILES.

For `O/N=C(\c1ccccc1)c1cc2ccncc2[nH]1` [Example 39, Phenyl(1H-pyrrolo[2,3-c]pyridin-2-yl)methanone oxime], the melting point lay within 132 to 142 °C.
`O=C(NCc1ccncc1)c1cc2ccnc(N(Cc3ccccc3)Cc3ccccc3)c2[nH]1` [Example 41, 7-(Dibenzylamino)-N-(4-pyridinylmethyl)-1H-pyrrolo[2,3-c]pyridine-2-carboxamide] gave a melting point of 119 to 120 °C.
To `O=C(NCc1ccncc1)c1cc2ccnc(NCc3ccccc3)c2[nH]1` [Example 42, 7-(Benzylamino)-N-(4-pyridinylmethyl)-1H-pyrrolo[2,3-c]pyridine-2-carboxamide] belongs 199 to 200 °C.
Under `O=C(NC(c1ccccc1)c1cc2ccncc2[nH]1)c1cccnc1` (stereo not drawn) [Example 43, N-[Phenyl(1H-pyrrolo[2,3-c]pyridin-2-yl)methyl]nicotinamide] stands 178 to 188 °C; under `OC(c1ccccc1)c1cc2ccnc(N(Cc3ccccc3)Cc3ccccc3)c2[nH]1` (stereo not drawn) [Example 46, [7-(Dibenzylamino)-1H-pyrrolo[2,3-c]pyridin-2-yl](phenyl)methanol], 53 to 61 °C.
`O=C(c1ccccc1)c1cc2ccnc(N(Cc3ccccc3)Cc3ccccc3)c2[nH]1` [Example 47, [7-(Dibenzylamino)-1H-pyrrolo[2,3-c]pyridin-2-yl](phenyl)methanone]: the melting point fell in the range of 122 to 124 °C.
To `O=C(NC(c1ccccc1)c1cc2ccncc2[nH]1)c1ccncc1` (stereo not drawn) [Example 49, N-[Phenyl (1H-pyrrolo[2,3-c]pyridin-2-yl)methyl]isonicotinamide] belongs 182 to 192 °C; to `O=C(NC(c1ccccc1)c1cc2ccncc2[nH]1)c1ccccn1` (stereo not drawn) [Example 50, N-[Phenyl (1H-pyrrolo[2,3-c]pyridin-2-yl)methyl]-2-pyridinecarboxamide], 102 to 110 °C.
`O=C(NC(c1ccccc1)c1cc2ccncc2[nH]1)c1ccccc1` (stereo not drawn) [Example 51, N-[Phenyl(1H-pyrrolo[2,3-c]pyridin-2-yl)methyl]benzamide]: the melting point is 206 to 208 °C.
To `OC(c1ccccc1)c1cc2ccncc2[nH]1` (stereo not drawn) [Example 52, Phenyl(1H-pyrrolo[2,3-c]pyridin-2-yl)methanol] belongs 178 to 180 °C; to `CC(C)(C)OC(=O)CO/N=C(\c1ccccc1)c1cc2ccncc2[nH]1` [Example 58, tert-Butyl[[[phenyl(1H-pyrrolo[2,3-c]pyridin-2-yl)methylene]amino]oxy]acetate], 47 to 52 °C; to `CC(C)(C)OC(=O)NCCO/N=C(\c1ccccc1)c1cc2ccncc2[nH]1` [Example 60, tert-Butyl 2-[[[phenyl(1H-pyrrolo[2,3-c]pyridin-2-yl)methylene]amino]oxy]ethylcarbamate], 84 to 88 °C.
To `O=C(O)CO/N=C(\c1ccccc1)c1cc2ccncc2[nH]1` [Example 66, [[[Phenyl(1H-pyrrolo[2,3-c]pyridin-2-yl)methylene]amino]oxy]acetic acid] belongs 68 to 73 °C.
Under `Cl.NCCO/N=C(\c1ccccc1)c1cc2ccncc2[nH]1` [Example 67] stands 176 to 184 °C (dec.); under `CC(=O)c1cc2ccncc2[nH]1` [Example 70, 1-(1H-Pyrrolo[2,3-c]pyridin-2-yl)ethanone], 236 to 242 °C (dec.); under `O=C(c1ccccc1)c1cc2cc(Cl)ncc2[nH]1` [Example 73, (5-Chloro-1H-pyrrolo[2,3-c]pyridin-2-yl)(phenyl)methanone], 194 to 197 °C.
As for `CC(C)(C)OC(=O)NCCCO/N=C(\c1ccccc1)c1cc2ccncc2[nH]1` [Example 76, tert-Butyl 3-[[[phenyl(1H-pyrrolo[2,3-c]pyridin-2-yl)methylene]amino]oxy]propylcarbamate], the melting point was 52 to 58 °C.
Under `CC(C)C(O)c1cc2ccncc2[nH]1` (stereo not drawn) [Example 78, 2-Methyl-1-(1H-pyrrolo[2,3-c]pyridin-2-yl)-1-propanol] stands 140 to 144 °C.
